One series deals with Human fibroblast BJ. The series can be described thus: Cytotoxicity MTT assay, BJ human fibroblast cells. It counts as cell-based. The settings on record: 48 hrs, ± SD from three independent experiments, NA: did not show activity at 30 µM. The protocol: (§1) Cytotoxicity against BJ Human fibroblast cells, and anti-cancer activity against PC3, HeLa and MCF-7 cancer cell lines were evaluated by following the procedure as described in the literature (Supplementary Materials).
The Biological Activity Assays Protocols […]
of positive control – mean of O.D of negative control)*100). […]
(§2) Standard drug used in the MTT assay was doxorubicin. […]
B. Cytotoxicity assay Protocol (BJ Human fibroblast cells) […]
standard MTT (3-[4, 5-dimethylthiazole-2-yl]-2, 5-diphenyl-tetrazolium bromide) colorimetric assay (Price & J. McMillan1, 1990). For this purpose, BJ Human fibroblast cells were cultured in Dulbecco’s Modified Eagle Medium, supplemented with 10% of fetal bovine serum (FBS), 100 IU/ml of penicillin and 100 µg/ml of streptomycin and 2 mM L‐glutamine in 75 cm2 flasks, and kept in 5% CO2 incubator at 37 °C (Mannerström, Toimela, Sarkanen & Heinonen, 2017).
Exponentially growing cells were harvested, counted with haemocytometer and diluted with a particular medium. Cell culture with the concentration of 6x10^4cells/ml was prepared and introduced (100 µL/well) into 96-well plates. After overnight incubation, medium was removed and 200 µL of fresh medium was added with different concentrations of compounds (1 -30µM). After 48 hrs, 200 µL MTT (0.5 mg/ml) was added to each well and incubated further for 3 hrs.
Subsequently, 100µL of DMSO was added to each well. The extent of MTT reduction to formazan within cells was calculated by measuring the absorbance at 550 nm, using a micro plate reader (Spectra Max plus, Molecular Devices, CA, USA). The cytotoxicity was recorded as concentra tion causing 50% growth inhibition (IC50) for BJ cells. The percent inhibition was calculated by using the following […]
Following concentrations were used to calculate (in case) of IC50: […]

For series [1], the system named is PC3 cells (Prostate Cancer). Briefly: PC3 cells (Prostate Cancer) MTT assay. In kind it is cell-based. The note with it: for IC50: MTT assay, 48 hrs, ± SD from three independent experiments, NA: did not show anticancer activity at 30 µM; for anticancer activity against PC3 prostate cancer cell line (in words): in comparison to doxorubicin. As for the experimental part: as §1
The Biological Activity Assays Protocols
A. PC3 cells (Prostate Cancer) assay […]
For this purpose, PC3 cells (Prostate Cancer) were cultured in Dulbecco’s Modified Eagle Medium, supplemented with 5% of fetal bovine serum (FBS), 100 IU/ml of penicillin and 100 µg/ml of streptomycin in 75 cm2 flasks, and kept in 5% CO2 incubator at 37 °C. Exponentially growing cells were harvested, counted with haemocytometer and diluted with a particular medium. Cell culture with the concentration of 1x10^5 cells/ml was prepared and introduced (100 µL/well) into 96-well plates. After overnight incubation, medium was removed and 200 µL of fresh medium was added with different concentrations of compounds (1-30µM). After 48 hrs, 200 µL MTT (0.5 mg/ml) was added to each well and incubated further for 4 hrs. Subsequently, 100µL of DMSO was added to each well. The extent of MTT reduction to formazan within cells was calculated by measuring the absorbance at 570 nm, using a micro plate reader (Spectra Max plus, Molecular Devices, CA, USA). The cytotoxicity was recorded as concentration causing 50% growth inhibition (IC50) for PC3 cells. The percent inhibition was calculated by using the following formula: […]
(§3) of positive control – mean of O.D of negative control)*100).
(§4) The results (% inhibition) were processed by using Soft- Max Pro software (Molecular Device, USA).
Standard drug used in the MTT assay was doxorubicin.
(§5) 1. Mosmann T. Rapid colorimetric assay for cellular growth and survival: application to proliferation and cytotoxicity assays. J Immunol Meth 1983, 65, 55–63. […]

Series [2] has as its system HeLa cells (Cervical Cancer). The series can be described thus: HeLa cells (Cervical Cancer) MTT assay. It counts as cell-based. The note with it: Homo sapiens, HeLa, 48 h, ± SD from three independent experiments, NA: did not show anticancer activity at 30 µM. The protocol:
Cytotoxicity against BJ Human fibroblast cells, and anti-cancer activity against PC3, HeLa and MCF-7 cancer cell lines were evaluated by following the procedure as described in the literature (Supplementary Materials). […]
as §3, §4
Following concentrations were used to calculate (in case) of IC50:
as §2
C. HeLa cells (Cervical Cancer) assay
Cytotoxic activity of compounds was evaluated in 96-well flat-bottomed micro plates by using the standard MTT (3-[4, 5-dimethylthiazole-2-yl]-2, 5-diphenyl-tetrazolium bromide) colorimetric assay40.
For this purpose, HeLa cells (Cervical Cancer) were cultured in Minimum Essential Medium Eagle, supplemented with 5% of fetal bovine serum (FBS) , 100 IU/ml of penicillin and 100 µg/ml of streptomycin in 75 cm2 flasks, and kept in 5% CO2 incubator at 37 °C. Exponentially growing cells were harvested, counted with haemocytometer and diluted with a particular medium. Cell culture with the concentration of 6x10^4 cells/ml was prepared and introduced (100 µL/well) into 96 -well plates. After overnight incubation, medium was removed and 200 µL of fresh medium was added with different concentrations of compounds (1-30µM). After 48 hrs, 200 µL MTT (0.5 mg/ml) was added to each well and incubated further for 4 hrs. Subsequently, 100µL of DMSO was added to each well. The extent of MTT reduction to formazan within cells was calculated by measuring the absorbance at 570 nm, using a micro plate reader (Spectra Max plus, Molecular Devices, CA, USA). The cytotoxicity was recorded as concentration causing 50% growth inhibition (IC 50) for HeLa. The percent inhibition was calculated by using the following formula: […]
The results (% inhibition) were processed by using Soft - Max Pro software (Molecular Device, USA).
as §5

Each structure is given as a SMILES string. Bounds are passed on as bounds.

With `O=C(CC(c1cc2ccccc2o1)c1c[nH]c2ccccc12)c1ccc(Br)cc1` (centres unmarked) [Compound 3d, 3-(Benzofuran-2-yl)-1-(4-bromophenyl)-3-(1H-indol-3-yl)propan-1-one], the melting point lay in the range of 108 to 109 °C. The half-maximal inhibitory concentration (IC50) in the series on Human fibroblast BJ was > 30 µM. In addition, the midpoint of inhibition in series [1] (Homo sapiens, PC-3, 48 h), the IC50, lay at 26.3 ± 0.8 µM. In addition, the IC50 in series [2] was 12.6 ± 0.4 µM.

In the case of `O=C(CC(c1cc2ccccc2s1)c1c[nH]c2ccccc12)c1ccccc1` (centres unmarked) [Compound 3n, 3-(Benzo[b]thiophen-2-yl)-3-(1H-indol-3-yl)-1-phenylpropan-1-one], the melting point lay within 159 to 160 °C. Besides, the IC50 in the series with Human fibroblast BJ is > 50 µM. In series [1] (Homo sapiens, PC-3, 48 h), the IC50 came to 20.4 ± 0.4 µM. This molecule had an IC50 in series [2] of 12.4 ± 0.2 µM.

As for `O=C(CC(c1cc2ccccc2o1)c1c[nH]c2ccc(Br)cc12)c1ccccc1[N+](=O)[O-]` (centres unmarked) [Compound 3j, 3-(Benzofuran-2-yl)-3-(5-bromo-1H-indol-3-yl)-1-(2-nitrophenyl)propan-1-one], the melting point lay within 173 to 174 °C. In series [1] (Homo sapiens, PC-3, 48 h), this molecule came in with an IC50 of 16 ± 0.1 µM. The molecule further returned an IC50 in series [2] of 17.3 ± 0.7 µM.

In turn, `COc1cccc(C(=O)CC(c2cc3ccccc3o2)c2c[nH]c3ccccc23)c1` (centres unmarked) [Compound 3l, 3-(Benzofuran-2-yl)-3-(1H-indol-3-yl)-1-(3-methoxyphenyl)propan-1-one] registered a melting point of 162 to 163 °C. For the same molecule, the half-maximal inhibitory concentration (IC50) with Human fibroblast BJ was > 30 µM. This molecule had a concentration for half-maximal inhibition (IC50) in series [1] (Homo sapiens, PC-3, 48 h) of 16.3 ± 1.6 µM. Besides, the IC50 in series [2] is 11.1 ± 0.6 µM.

As to `O=C(CC(c1cc2ccccc2o1)c1c[nH]c2cc(F)ccc12)c1ccc(Br)cc1` (centres unmarked) [Compound 3e, 3-(Benzofuran-2-yl)-1-(4-bromophenyl)-3-(6-fluoro-1H-indol-3-yl)propan-1-one], the melting point is 123 to 124 °C. The IC50 in the series with Human fibroblast BJ was > 30 µM. In series [1] (Homo sapiens, PC-3, 48 h), this molecule yielded an IC50 of 7.8 ± 0.4 µM. This molecule also gave an IC50 in series [2] of 13.6 ± 0.4 µM.

`O=C(CC(c1cc2ccccc2s1)c1c[nH]c2ccccc12)c1ccc(Cl)cc1` (centres unmarked) [Compound 3o, 3-(Benzo[b]thiophen-2-yl)-1-(4-chlorophenyl)-3-(1H-indol-3-yl)propan-1-one] came in with a melting point of 150 to 151 °C. Moreover, the half-inhibitory concentration (IC50) in the series with Human fibroblast BJ was > 50 µM. The molecule further returned an IC50 in series [1] (Homo sapiens, PC-3, 48 h) of 29.7 ± 0.1 µM. 13.8 ± 0.3 µM corresponded to half-maximal inhibition in series [2] (IC50).

As to `O=C(CC(c1cc2ccccc2s1)c1c[nH]c2ccccc12)c1ccc(F)cc1` (centres unmarked) [Compound 3p, 3-(Benzo[b]thiophen-2-yl)-1-(4-fluorophenyl)-3-(1H-indol-3-yl)propan-1-one], the IC50 in the series on Human fibroblast BJ was > 50 µM; in series [1] (Homo sapiens, PC-3, 48 h), 27.6 ± 0.1 µM; in series [2], 12.7 ± 0.1 µM.

`COc1ccccc1C(=O)CC(c1cc2ccccc2o1)c1c[nH]c2ccccc12` (centres unmarked) [Compound 3r, 3-(Benzofuran-2-yl)-3-(1H-indol-3-yl)-1-(2-methoxyphenyl)propan-1-one] yielded a melting point of 67 to 68 °C. Also, 20.4 ± 0.4 µM corresponded to half-maximal inhibition in series [1] (Homo sapiens, PC-3, 48 h) (IC50). For the same molecule, the “anticancer activity against PC3 prostate cancer cell line (in words)” value in series [1] was “inactive”. The IC50 in series [2] was determined as 12.4 ± 0.2 µM.

The molecule `O=C(CC(c1cc2ccccc2o1)c1c[nH]c2cc(F)ccc12)c1ccc(Cl)cc1` (centres unmarked) [Compound 3g, 3-(Benzofuran-2-yl)-1-(4-chlorophenyl)-3-(6-fluoro-1H-indol-3-yl)propan-1-one] displayed a melting point of 112 to 113 °C. For the same molecule, the IC50 in the series on Human fibroblast BJ was > 30 µM. Besides, the IC50 in series [1] (Homo sapiens, PC-3, 48 h) is 22 ± 1.3 µM. This molecule displayed a 50% inhibitory concentration (IC50) in series [1] of 20 ± 1.3 µM. Also, the midpoint of inhibition in series [2], the IC50, lay at 14.7 ± 1.1 µM.

Molecule `O=C(CC(c1cc2ccccc2s1)c1c[nH]c2ccccc12)c1ccc(Br)cc1` (centres unmarked) [Compound 3h, 3-(Benzo[b]thiophen-2-yl)-1-(4-bromophenyl)-3-(1H-indol-3-yl)propan-1-one] returned a melting point of 121 to 122 °C. Also, in the series on Human fibroblast BJ, the concentration for half-maximal inhibition (IC50) is > 30 µM. Moreover, the IC50 in series [1] (Homo sapiens, PC-3, 48 h) was determined as 29.7 ± 0.4 µM.

Consider `O=C(CC(c1cc2ccccc2o1)c1c[nH]c2cc(F)ccc12)c1ccccc1[N+](=O)[O-]` (centres unmarked) [Compound 3i, 3-(Benzofuran-2-yl)-3-(6-fluoro-1H-indol-3-yl)-1-(2-nitrophenyl)propan-1-one], for which the melting point is 139 to 140 °C. For the same molecule, the “anticancer activity against PC3 prostate cancer cell line (in words)” value in series [1] was “complete loss of anticancer activity”. Also, the 50% inhibitory concentration (IC50) in series [2] amounted to 15.2 ± 0.6 µM.

Consider `O=C(CC(c1cc2ccccc2s1)c1c[nH]c2ccccc12)c1ccc(C(F)(F)F)cc1` (centres unmarked) [Compound 3q, 3-(Benzo[b]thiophen-2-yl)-3-(1H-indol-3-yl)-1-(4-(trifluoromethyl)phenyl)propan-1-one], for which the melting point lay within 165 to 166 °C. In addition, the IC50 in the series with Human fibroblast BJ was > 50 µM. The molecule further came in with a concentration for half-maximal inhibition (IC50) in series [1] (Homo sapiens, PC-3, 48 h) of 18 ± 0.3 µM. In series [2], the IC50 was found to be 18.8 ± 0.2 µM.

The molecule `O=C(CC(c1cc2ccccc2o1)c1c[nH]c2ccccc12)c1ccccc1[N+](=O)[O-]` (centres unmarked) [Compound 3k, 3-(Benzofuran-2-yl)-3-(1H-indol-3-yl)-1-(2-nitrophenyl)propan-1-one] registered a melting point of 154 to 155 °C. Besides, the half-inhibitory concentration (IC50) in series [2] came to 14.9 ± 0.6 µM.

For the origin of these results see paper PMC8070033, “Bimetallic Iron–Palladium Catalyst System as a Lewis-Acid for the Synthesis of Novel Pharmacophores Based Indole Scaffold as Anticancer Agents” (Molecules, 2021).
